# Patent publication US9695155B2, “Herbicidal substituted pyrimidinyloxy benzene compounds” (E. I. DU PONT DE NEMOURS AND COMPANY, priority 2013, dated 2017)
# Experiments:
# pigweed [1] = assay: Test A preemergence; assay type: in vivo, Amaranthus retroflexus; settings: for Plant response rating, Pigweed: 125 g ai/ha
# Outline: (§1)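 Greenhouse pot test, loam/sand soil. Formulation: non-phytotoxic solvent mix plus surfactant. Pre: directed spray onto soil after sowing. Post: plants at 1–2 leaf, 2–10 cm. Rated visually vs untreated controls at ~10 d, 0 (no effect) to 100 (complete control).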
# pigweed [2] = assay: Test A postemergence; assay type: in vivo, Amaranthus retroflexus
# Outline: as §1
# corn [3] = assay: Test A postemergence; assay type: in vivo, Zea mays
# Outline: as §1
# Italian ryegrass = assay: Test C postemergence; assay type: in vivo, Lolium multiflorum; settings: for Plant response rating, Ryegrass, Italian: scale 0 to 100 (0 no effect, 100 complete control)
# Source text: (§2) Seeds of plant species selected from blackgrass (Alopecurus myosuroides), Italian ryegrass (Lolium multiflorum), wheat, winter (winter wheat, Triticum aestivum), galium (catchweed bedstraw, Galium aparine), corn (Zea mays), large (Lg) crabgrass (Digitaria sanguinalis), giant foxtail (Setaria faberii), johnsongrass (Sorghum halepense), lambsquarters (Chenopodium album), morningglory (Ipomoea coccinea), yellow nutsedge (Cyperus esculentus), pigweed (Amaranthus retroflexus), ragweed (common ragweed, Ambrosia elatior), soybean (Glycine max), barnyardgrass (Echinochloa crus-galli), oilseed rape (Brassica napus), waterhemp (common waterhemp, Amaranthus rudis), kochia (Kochia scoparia), wild oat (Avena fatua), surinam grass (Brachiaria decumbens), foxtail, green (green foxtail, Setaria viridis), goosegrass (Eleusine indica), bromegrass, downy (downy bromegrass, Bromus tectorum), nightshade (eastern black nightshade, Solanum ptycanthum), cocklebur (common cocklebur, Xanthium strumarium), cupgrass, woolly (woolly cupgrass, Eriochloa villosa), bermudagrass (Cynodon dactylon), sunflower, (common oilseed sunflower, Helianthus annuus), Russian thistle (Salsola kali), and velvetleaf (Abutilon theophrasti) were planted into a blend of loam soil and sand and treated preemergence with test chemicals formulated in a non-phytotoxic solvent mixture which included a surfactant.
# (§3) At the same time, plants selected from these crop and weed species and also barley, winter (winter barley, Hordeum vulgare), windgrass (Apera spica-venti), chickweed (common chickweed, Stellaria media), deadnettle (henbit deadnettle, Lamium amplexicaule), and canarygrass (littleseed canarygrass, Phalaris minor) were planted in pots containing Redi-Earth® planting medium (Scotts Company, 14111 Scottslawn Road, Marysville, Ohio 43041) comprising spaghnum peat moss, vermiculite, wetting agent and starter nutrients and treated with postemergence applications of test chemicals formulated in the same manner. Plants ranged in height from 2 to 18 cm (1- to 4-leaf stage) for postemergence treatments. Treated plants and controls were maintained in a greenhouse for 13 to 15 days, after which time all species were compared to controls and visually evaluated. Plant response ratings, summarized in Table C, are based on a scale of 0 to 100 where 0 is no effect and 100 is complete control. A dash (-) response means no test result.
# corn [4] = assay: Test C postemergence; assay type: in vivo, Zea mays
# Source text: as §2, §3
# giant foxtail = assay: Test C postemergence; assay type: in vivo, Setaria faberii
# Source text: as §2, §3
# johnsongrass = assay: Test C postemergence; assay type: in vivo, Sorghum halepense
# Source text: as §2, §3
# pigweed [5] = assay: Test C postemergence; assay type: in vivo, Amaranthus retroflexus; settings: for Plant response rating, Pigweed: scale 0 to 100 (0 no effect, 100 complete control)
# Outline: (§4)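 Whole-plant greenhouse test with surfactant-containing solvent formulation, applied preemergence to sown loam–sand pots or postemergence to 2–18 cm plants. Scored by eye 13 to 15 days on, 0–100 scale.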
# soybean = assay: Test C postemergence; assay type: in vivo, Glycine max; settings: for Plant response rating, Soybean: scale 0 to 100 (0 no effect, 100 complete control)
# Source text: as §2, §3
# barnyardgrass = assay: Test C postemergence; assay type: in vivo, Echinochloa crus-galli
# Source text: as §2, §3
# waterhemp = assay: Test C postemergence; assay type: in vivo, Amaranthus rudis; settings: for Plant response rating, Waterhemp: scale 0 to 100 (0 no effect, 100 complete control)
# Source text: as §2, §3
# kochia = assay: Test C postemergence; assay type: in vivo, Kochia scoparia
# Source text: as §2, §3
# wild oat = assay: Test C postemergence; assay type: in vivo, Avena fatua; settings: for Plant response rating, Oat, Wild: scale 0 to 100 (0 no effect, 100 complete control)
# Outline: as §4
# [6] = 0 to 100 scale where 0 is no effect and 100 is complete control
# [7] = 500 g ai/ha, 0 to 100 scale where 0 is no effect and 100 is complete control
# [8] = 125 g ai/ha, 0 to 100 scale where 0 is no effect and 100 is complete control
# [9] = 16 g ai/ha, postemergence, 0 is no effect, 100 is complete control
# [10] = 125 g ai/ha, postemergence, visual rating
# [11] = 125 g ai/ha, postemergence, visual rating, scale 0 to 100 (0 no effect, 100 complete control)
# [12] = Postemergence, 62 g ai/ha, scale 0 to 100 (0 no effect, 100 complete control)
# [13] = Postemergence, 31 g ai/ha, scale 0 to 100 (0 no effect, 100 complete control), 13 to 15 days
# [14] = Postemergence, 31 g ai/ha, 13 to 15 days
# [15] = 16 g ai/ha, postemergence, visual rating, scale 0 to 100 (0 no effect, 100 complete control), 13 to 15 days
# [16] = 1000 g ai/ha, 0 to 100 scale, 0 no effect, 100 complete control
smiles,measurement,setting,value
Clc1cnc(Oc2cccc(Br)c2-n2cc(I)nn2)nc1 [Compound 117],"Plant response rating, Pigweed",pigweed [1]; [6],100
same,Pigweed plant response rating,pigweed [1]; [7],100
same,"Plant response rating, Pigweed",pigweed [2]; [7],100
same,"Plant response rating, Corn",corn [3]; [8],30
same,"Plant response rating, Corn",corn [3]; [7],50
same,"Plant response rating (0 to 100), Ryegrass, Italian",Italian ryegrass; [9],0
same,"Plant response rating, Ryegrass, Italian",Italian ryegrass; [10],5
same,"Plant response rating, Ryegrass, Italian","Italian ryegrass; Postemergence, 62 g ai/ha",0
same,"Plant response rating (0 to 100), Corn",corn [4]; [9],5
same,"Plant response rating, Corn",corn [4]; [11],5
same,"Plant response rating, Corn",corn [4]; [12],5
same,"Plant response rating (0 to 100), Foxtail, Giant",giant foxtail; [9],20
same,"Plant response rating, Foxtail, Giant",giant foxtail; [11],55
same,"Plant response rating, Foxtail, Giant",giant foxtail; [12],40
same,"Plant response rating (0 to 100), Johnsongrass",johnsongrass; [9],0
same,"Plant response rating, Johnsongrass",johnsongrass; [11],5
same,"Plant response rating, Johnsongrass",johnsongrass; [12],5
same,"Plant response rating (0 to 100), Pigweed",pigweed [5]; [9],80
same,"Plant response rating, Pigweed",pigweed [5]; [10],90
same,"Plant response rating, Pigweed","pigweed [5]; Postemergence, 62 g ai/ha",85
same,"Plant response rating (0 to 100), Soybean",soybean; [9],35
same,"Plant response rating, Soybean",soybean; [10],50
same,"Plant response rating, Soybean","soybean; Postemergence, 62 g ai/ha",50
same,"Plant response rating (0 to 100), Barnyardgrass",barnyardgrass; [9],5
same,"Plant response rating, Barnyardgrass",barnyardgrass; [11],10
same,"Plant response rating, Barnyardgrass",barnyardgrass; [13],5
same,"Plant response rating, Barnyardgrass",barnyardgrass; [12],5
same,"Plant response rating (0 to 100), Waterhemp",waterhemp; [9],60
same,"Plant response rating, Waterhemp",waterhemp; [10],90
same,"Plant response rating, Waterhemp","waterhemp; Postemergence, 62 g ai/ha",85
same,"Plant response rating (0 to 100), Kochia",kochia; [9],90
same,"Plant response rating, Kochia",kochia; [11],100
same,"Plant response rating, Kochia",kochia; [12],100
same,"Plant response rating (0 to 100), Oat, Wild",wild oat; [9],10
same,"Plant response rating, Oat, Wild",wild oat; [10],20
same,"Plant response rating, Oat, Wild","wild oat; Postemergence, 62 g ai/ha",10
CC(C)c1cnn(-c2c(C#N)cccc2Oc2ncc(Cl)cn2)c1 [Compound 85],"Plant response rating, Pigweed",pigweed [1]; [6],100
same,Pigweed plant response rating,"pigweed [1]; 500 g ai/ha, 0 to 100 scale, 0 no effect, 100 complete control, approx. 10 days",100
same,"Plant response rating, Pigweed",pigweed [2]; [8],80
same,"Plant response rating, Pigweed",pigweed [2]; [7],100
same,"Plant response rating, Corn",corn [3]; [8],30
same,"Plant response rating, Corn","corn [3]; 500 g ai/ha, 0 to 100 scale, 0 no effect, 100 complete control",70
same,"Plant response rating (0 to 100), Ryegrass, Italian","Italian ryegrass; 125 g ai/ha, postemergence",5
same,"Plant response rating, Ryegrass, Italian",Italian ryegrass; [14],0
same,"Plant response rating, Ryegrass, Italian","Italian ryegrass; Postemergence, 62 g ai/ha",0
same,Corn plant response rating,corn [4]; [15],5
same,"Plant response rating (0 to 100), Corn","corn [4]; 125 g ai/ha, postemergence",10
same,"Plant response rating, Corn",corn [4]; [13],5
same,"Plant response rating, Corn",corn [4]; [12],10
same,"Foxtail, Giant plant response rating",giant foxtail; [15],5
same,"Plant response rating (0 to 100), Foxtail, Giant","giant foxtail; 125 g ai/ha, postemergence",15
same,"Plant response rating, Foxtail, Giant",giant foxtail; [13],10
same,"Plant response rating, Foxtail, Giant",giant foxtail; [12],10
same,Johnsongrass plant response rating,johnsongrass; [15],0
same,"Plant response rating (0 to 100), Johnsongrass","johnsongrass; 125 g ai/ha, postemergence",10
same,"Plant response rating, Johnsongrass",johnsongrass; [13],0
same,"Plant response rating, Johnsongrass",johnsongrass; [12],5
same,"Plant response rating (0 to 100), Pigweed","pigweed [5]; 125 g ai/ha, postemergence",70
same,"Plant response rating, Pigweed",pigweed [5]; [14],55
same,"Plant response rating, Pigweed","pigweed [5]; Postemergence, 62 g ai/ha",70
same,"Plant response rating (0 to 100), Soybean","soybean; 125 g ai/ha, postemergence",90
same,"Plant response rating, Soybean",soybean; [14],75
same,"Plant response rating, Soybean","soybean; Postemergence, 62 g ai/ha",65
same,Barnyardgrass plant response rating,barnyardgrass; [15],10
same,"Plant response rating (0 to 100), Barnyardgrass","barnyardgrass; 125 g ai/ha, postemergence",5
same,"Plant response rating, Barnyardgrass",barnyardgrass; [13],5
same,"Plant response rating, Barnyardgrass",barnyardgrass; [12],5
same,"Plant response rating (0 to 100), Waterhemp","waterhemp; 125 g ai/ha, postemergence",60
same,"Plant response rating, Waterhemp",waterhemp; [14],55
same,"Plant response rating, Waterhemp","waterhemp; Postemergence, 62 g ai/ha",70
same,Kochia plant response rating,kochia; [15],50
same,"Plant response rating (0 to 100), Kochia","kochia; 125 g ai/ha, postemergence",90
same,"Plant response rating, Kochia",kochia; [13],50
same,"Plant response rating, Kochia",kochia; [12],80
same,"Plant response rating (0 to 100), Oat, Wild","wild oat; 125 g ai/ha, postemergence",5
same,"Plant response rating, Oat, Wild",wild oat; [14],0
same,"Plant response rating, Oat, Wild","wild oat; Postemergence, 62 g ai/ha",5
FCc1cn(-c2ccccc2Oc2ncc(Cl)cn2)nn1 [Compound 123],Pigweed plant response rating,"pigweed [1]; 1000 g ai/ha, 0 to 100 scale, 0 no effect, 100 complete control, approx. 10 days",100
same,"Plant response rating, Pigweed",pigweed [2]; [16],100
same,"Plant response rating, Corn",corn [3]; [16],70
same,"Plant response rating (0 to 100), Ryegrass, Italian",Italian ryegrass; [9],0
same,"Plant response rating, Ryegrass, Italian",Italian ryegrass; [10],0
same,"Plant response rating, Ryegrass, Italian","Italian ryegrass; Postemergence, 62 g ai/ha",0
same,"Plant response rating (0 to 100), Corn",corn [4]; [9],0
same,"Plant response rating, Corn",corn [4]; [11],5
same,"Plant response rating, Corn",corn [4]; [12],5
same,"Plant response rating (0 to 100), Foxtail, Giant",giant foxtail; [9],0
same,"Plant response rating, Foxtail, Giant",giant foxtail; [11],20
same,"Plant response rating, Foxtail, Giant",giant foxtail; [12],20
same,"Plant response rating (0 to 100), Johnsongrass",johnsongrass; [9],10
same,"Plant response rating, Johnsongrass",johnsongrass; [11],10
same,"Plant response rating, Johnsongrass",johnsongrass; [12],10
same,"Plant response rating (0 to 100), Pigweed",pigweed [5]; [9],70
same,"Plant response rating, Pigweed",pigweed [5]; [10],85
same,"Plant response rating, Pigweed","pigweed [5]; Postemergence, 62 g ai/ha",85
same,"Plant response rating (0 to 100), Soybean",soybean; [9],45
same,"Plant response rating, Soybean",soybean; [10],90
same,"Plant response rating, Soybean","soybean; Postemergence, 62 g ai/ha",65
same,"Plant response rating (0 to 100), Barnyardgrass",barnyardgrass; [9],10
same,"Plant response rating, Barnyardgrass",barnyardgrass; [11],15
same,"Plant response rating, Barnyardgrass",barnyardgrass; [13],15
same,"Plant response rating, Barnyardgrass",barnyardgrass; [12],15
same,"Plant response rating (0 to 100), Waterhemp",waterhemp; [9],25
same,"Plant response rating, Waterhemp",waterhemp; [10],80
same,"Plant response rating, Waterhemp","waterhemp; Postemergence, 62 g ai/ha",80
same,"Plant response rating (0 to 100), Kochia",kochia; [9],50
same,"Plant response rating, Kochia",kochia; [11],85
same,"Plant response rating, Kochia",kochia; [12],70
same,"Plant response rating (0 to 100), Oat, Wild",wild oat; [9],0
same,"Plant response rating, Oat, Wild",wild oat; [10],0
same,"Plant response rating, Oat, Wild","wild oat; Postemergence, 62 g ai/ha",0
